Measurements taken from ChEMBL document CHEMBL1201861, “Genomics of Drug Sensitity in Cancer screening data, Wellcome Trust Sanger Institute”.

Legend:
[1] = test system: HuTu80; experiment: cells; type: functional, cell-based, Homo sapiens, HUTU-80; settings: Homo sapiens, HuTu80;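 note: growth inhibition of HuTu80 human cells, determined with a cell viability readout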
Description: SANGER: Inhibition of human HUTU-80 cell growth in a cell viability assay.

[2] = test system: LK-2; experiment: cells; type: functional, cell-based; settings: Homo sapiens;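 note: growth inhibition of LK-2 cells, read out with a viability assay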
Description: SANGER: Inhibition of human LK-2 cell growth in a cell viability assay.

[3] = test system: CAL-51; experiment: cells; type: functional, cell-based; settings: Homo sapiens;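 note: human CAL-51 cell line, growth inhibition read out via a cell viability assay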
Description: SANGER: Inhibition of human CAL-51 cell growth in a cell viability assay.

[4] = test system: OVCAR-5; experiment: cells; type: functional, cell-based; settings: Homo sapiens;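 note: growth inhibition of human OVCAR-5 cells, read out with a cell viability assay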
Description: SANGER: Inhibition of human OVCAR-5 cell growth in a cell viability assay.

[5] = test system: PANC-08-13; experiment: cells; type: functional, cell-based; settings: Homo sapiens
Description: SANGER: Inhibition of human PANC-08-13 cell growth in a cell viability assay.

[6] = test system: DU-145; experiment: cells; type: functional, cell-based; settings: Homo sapiens
Description: SANGER: Inhibition of human DU-145 cell growth in a cell viability assay.

[7] = test system: VMRC-RCZ; experiment: cells; type: functional, cell-based; settings: Homo sapiens
Description: SANGER: Inhibition of human VMRC-RCZ cell growth in a cell viability assay.

[8] = test system: NCI-H630; experiment: cells; type: functional, cell-based; settings: Homo sapiens;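 note: growth inhibition of NCI-H630 cells, read out with a cell viability assay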
Description: SANGER: Inhibition of human NCI-H630 cell growth in a cell viability assay.

[9] = test system: KYSE-520 cell line; experiment: cells; type: functional, cell-based; settings: Homo sapiens;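 note: growth inhibition of human KYSE-520 cells, read out with a viability assay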
Description: SANGER: Inhibition of human KYSE-520 cell growth in a cell viability assay.

[10] = test system: RCM-1; experiment: cells; type: functional, cell-based; settings: Homo sapiens;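 note: growth inhibition of the RCM-1 line, determined with a cell viability readout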
Description: SANGER: Inhibition of human RCM-1 cell growth in a cell viability assay.

[11] = test system: OE33; experiment: cells; type: functional, cell-based; settings: Homo sapiens;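 note: growth inhibition of human OE33 cells, measured by a cell viability assay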
Description: SANGER: Inhibition of human OE33 cell growth in a cell viability assay.

[12] = test system: MKN-28; experiment: cells; type: functional, cell-based; settings: Homo sapiens;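 note: cell viability assay read-out, IC50 reflects suppression of growth of human MKN-28 cells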
Description: SANGER: Inhibition of human MKN28 cell growth in a cell viability assay.

[13] = test system: IST-SL2; experiment: cells; type: functional, cell-based, Homo sapiens; settings: Homo sapiens, IST-SL2;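 note: growth inhibition of human IST-SL2 cells, read out by a cell viability assay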
Description: SANGER: Inhibition of human IST-SL2 cell growth in a cell viability assay.

[14] = test system: C32; experiment: cells; type: functional, cell-based; settings: Homo sapiens;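 note: cell viability assay, with IC50 reflecting inhibition of C32 cell growth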
Description: SANGER: Inhibition of human C32 cell growth in a cell viability assay.

[15] = test system: CPC-N; experiment: cells; type: functional, cell-based, Homo sapiens; settings: Homo sapiens, CPC-N;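 note: growth inhibition of CPC-N cells, with a cell viability assay as the readout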
Description: SANGER: Inhibition of human CPC-N cell growth in a cell viability assay.

[16] = test system: CAL-72; experiment: cells; type: functional, cell-based; settings: Homo sapiens;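 note: cell viability assay measuring inhibition of proliferation in the CAL-72 cell line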
Description: SANGER: Inhibition of human CAL-72 cell growth in a cell viability assay.

[17] = test system: L-540; experiment: cells; type: functional, cell-based, Homo sapiens; settings: Homo sapiens, L-540;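 note: growth inhibition of the human L-540 cell line, read out with a viability assay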
Description: SANGER: Inhibition of human L-540 cell growth in a cell viability assay.

[18] = test system: CAL-54; experiment: cells; type: functional, cell-based; settings: Homo sapiens;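 note: growth inhibition of CAL-54 cells, read out by a viability measurement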
Description: SANGER: Inhibition of human CAL-54 cell growth in a cell viability assay.

[19] = test system: NCI-H650; experiment: cells; type: functional, cell-based; settings: Homo sapiens;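 note: growth inhibition of NCI-H650 cells, read out by a viability assay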
Description: SANGER: Inhibition of human NCI-H650 cell growth in a cell viability assay.

[20] = test system: HCC70; experiment: cells; type: functional, cell-based; settings: Homo sapiens;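 note: cell viability assay measuring how strongly the compound suppresses proliferation of HCC70 cells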
Description: SANGER: Inhibition of human HCC70 cell growth in a cell viability assay.

[21] = test system: SW780; experiment: cells; type: functional, cell-based; settings: Homo sapiens;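 note: growth inhibition of the cells, read out with a cell viability assay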
Description: SANGER: Inhibition of human SW780 cell growth in a cell viability assay.

[22] = test system: BHY; experiment: cells; type: functional, cell-based; settings: Homo sapiens;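 note: cell growth inhibition read out by a viability assay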
Description: SANGER: Inhibition of human BHY cell growth in a cell viability assay.

[23] = test system: NCI-H441; experiment: cells; type: functional, cell-based; settings: Homo sapiens;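 note: growth inhibition of NCI-H441 cells, read out with a cell viability assay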
Description: SANGER: Inhibition of human NCI-H441 cell growth in a cell viability assay.

[24] = test system: NCI-H2141; experiment: cells; type: functional, cell-based, Homo sapiens; settings: Homo sapiens, NCI-H2141;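 note: growth inhibition of human NCI-H2141 cells, read out with a cell viability assay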
Description: SANGER: Inhibition of human NCI-H2141 cell growth in a cell viability assay.

[25] = test system: HCC 2998; experiment: cells; type: functional, cell-based; settings: Homo sapiens;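 note: growth inhibition of human HCC2998 cells, measured with a cell viability read-out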
Description: SANGER: Inhibition of human HCC2998 cell growth in a cell viability assay.

[26] = test system: CaR-1; experiment: cells; type: functional, cell-based; settings: Homo sapiens;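 note: growth inhibition of human CaR-1 cancer cells, read out with a cell viability assay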
Description: SANGER: Inhibition of human CaR-1 cell growth in a cell viability assay.

[27] = test system: RPMI-7951; experiment: cells; type: functional, cell-based; settings: Homo sapiens
Description: SANGER: Inhibition of human RPMI-7951 cell growth in a cell viability assay.

[28] = test system: SF-295; experiment: cells; type: functional, cell-based; settings: Homo sapiens;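 note: growth inhibition of SF-295 cells, read out with a cell viability assay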
Description: SANGER: Inhibition of human SF295 cell growth in a cell viability assay.

[29] = test system: DMS-79; experiment: cells; type: functional, cell-based, Homo sapiens; settings: Homo sapiens, DMS-79
Description: SANGER: Inhibition of human DMS-79 cell growth in a cell viability assay.

[30] = test system: MFE-280; experiment: cells; type: functional, cell-based; settings: Homo sapiens;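 note: growth inhibition of MFE-280 cells, determined with a cell viability readout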
Description: SANGER: Inhibition of human MFE-280 cell growth in a cell viability assay.

[31] = test system: CP66-MEL; experiment: cells; type: functional, cell-based; settings: Homo sapiens;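 note: growth inhibition of CP66-MEL cells determined in a cell viability assay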
Description: SANGER: Inhibition of human CP66-MEL cell growth in a cell viability assay.

[32] = test system: HuP-T3; experiment: cells; type: functional, cell-based; settings: Homo sapiens;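 note: HuP-T3 cell growth inhibition, read out with a cell viability assay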
Description: SANGER: Inhibition of human HuP-T3 cell growth in a cell viability assay.

[33] = test system: HO-1-N-1; experiment: cells; type: functional, cell-based; settings: Homo sapiens;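 note: growth inhibition of human HO-1-N-1 cells, read out with a cell viability assay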
Description: SANGER: Inhibition of human HO-1-N-1 cell growth in a cell viability assay.

[34] = test system: SW-620; experiment: cells; type: functional, cell-based; settings: Homo sapiens;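 note: growth inhibition of human SW-620 cells, measured by a cell viability assay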
Description: SANGER: Inhibition of human SW620 cell growth in a cell viability assay.

[35] = test system: NCI-H520; experiment: cells; type: functional, cell-based; settings: Homo sapiens;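 note: growth inhibition of NCI-H520 cells, measured by a cell viability assay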
Description: SANGER: Inhibition of human NCI-H520 cell growth in a cell viability assay.

[36] = test system: NCI-H2009; experiment: cells; type: functional, cell-based; settings: Homo sapiens;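 note: cell viability assay measuring inhibition of NCI-H2009 cell growth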
Description: SANGER: Inhibition of human NCI-H2009 cell growth in a cell viability assay.

[37] = test system: HCC1569; experiment: cells; type: functional, cell-based; settings: Homo sapiens;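 note: growth inhibition of human HCC1569 cells, read out with a cell viability assay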
Description: SANGER: Inhibition of human HCC1569 cell growth in a cell viability assay.

[38] = test system: LOUCY; experiment: cells; type: functional, cell-based, Homo sapiens; settings: Homo sapiens, LOUCY;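 note: growth inhibition of human LOUCY cells, read out with a cell viability assay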
Description: SANGER: Inhibition of human LOUCY cell growth in a cell viability assay.

[39] = test system: TYK-nu; experiment: cells; type: functional, cell-based; settings: Homo sapiens;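 note: growth inhibition of human TYK-nu cells, read out by a cell viability assay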
Description: SANGER: Inhibition of human TYK-nu cell growth in a cell viability assay.

[40] = test system: VM-CUB-1; experiment: cells; type: functional, cell-based; settings: Homo sapiens;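 note: cell viability assay measuring growth inhibition of the human VM-CUB-1 cell line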
Description: SANGER: Inhibition of human VM-CUB-1 cell growth in a cell viability assay.

[41] = test system: SNU-16; experiment: cells; type: functional, cell-based, Homo sapiens; settings: Homo sapiens, SNU-16;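 note: growth inhibition of human SNU-16 cells, determined with a cell viability readout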
Description: SANGER: Inhibition of human NCI-SNU-16 cell growth in a cell viability assay.

[42] = test system: UACC-812; experiment: cells; type: functional, cell-based; settings: Homo sapiens
Description: SANGER: Inhibition of human UACC-812 cell growth in a cell viability assay.

[43] = test system: SW837; experiment: cells; type: functional, cell-based; settings: Homo sapiens;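 note: growth inhibition of SW837 cells, determined with a cell viability assay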
Description: SANGER: Inhibition of human SW837 cell growth in a cell viability assay.

[44] = test system: NCI-H1436; experiment: cells; type: functional, cell-based, Homo sapiens; settings: Homo sapiens, NCI-H1436;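 note: growth suppression of human NCI-H1436 cells, determined with a cell viability readout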
Description: SANGER: Inhibition of human NCI-H1436 cell growth in a cell viability assay.

[45] = test system: GP5d; experiment: cells; type: functional, cell-based; settings: Homo sapiens;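 note: growth inhibition of human GP5d cells, read out with a cell viability assay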
Description: SANGER: Inhibition of human GP5d cell growth in a cell viability assay.

[46] = test system: SUP-T1; experiment: cells; type: functional, cell-based, Homo sapiens; settings: Homo sapiens, SUP-T1;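 note: growth inhibition of human SUP-T1 cells, read out as cell viability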
Description: SANGER: Inhibition of human SUP-T1 cell growth in a cell viability assay.

[47] = test system: Daoy; experiment: cells; type: functional, cell-based; settings: Homo sapiens;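 note: daoy cell growth inhibition, read out as cell viability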
Description: SANGER: Inhibition of human Daoy cell growth in a cell viability assay.

[48] = test system: A-375; experiment: cells; type: functional, cell-based; settings: Homo sapiens;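 note: growth inhibition of A375 cells, read out with a cell viability assay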
Description: SANGER: Inhibition of human A375 cell growth in a cell viability assay.

[49] = test system: 647-V; experiment: cells; type: functional, cell-based; settings: Homo sapiens;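 note: growth inhibition of 647-V cells, read out with a cell viability assay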
Description: SANGER: Inhibition of human 647-V cell growth in a cell viability assay.

[50] = test system: NCI-H187; experiment: cells; type: functional, cell-based, Homo sapiens; settings: Homo sapiens, NCI-H187;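 note: growth inhibition of NCI-H187 cells, read out as cell viability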
Description: SANGER: Inhibition of human NCI-H187 cell growth in a cell viability assay.

[51] = test system: NCI-H719; experiment: cells; type: functional, cell-based, Homo sapiens; settings: Homo sapiens, NCI-H719;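 note: growth inhibition of the cultured cell line, read out with a viability assay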
Description: SANGER: Inhibition of human NCI-H719 cell growth in a cell viability assay.

[52] = test system: HOP-92; experiment: cells; type: functional, cell-based; settings: Homo sapiens;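 note: cell viability readout, with IC50 reflecting inhibition of HOP-92 cell growth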
Description: SANGER: Inhibition of human HOP-92 cell growth in a cell viability assay.

[53] = test system: J82; experiment: cells; type: functional, cell-based; settings: Homo sapiens;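 note: growth inhibition of J82 cells, read out with a cell viability assay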
Description: SANGER: Inhibition of human J82 cell growth in a cell viability assay.

[54] = test system: NCI-H292; experiment: cells; type: functional, cell-based; settings: Homo sapiens;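 note: growth inhibition of NCI-H292 cells, read out with a cell viability assay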
Description: SANGER: Inhibition of human NCI-H292 cell growth in a cell viability assay.

[55] = test system: SAS; experiment: cells; type: functional, cell-based; settings: Homo sapiens;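 note: growth inhibition of SAS cells, read out with a cell viability assay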
Description: SANGER: Inhibition of human SAS cell growth in a cell viability assay.

[56] = test system: IM-9; experiment: SANGER: Inhibition of human IM-9 cell growth in a cell viability assay.; type: functional, cell-based; settings: Homo sapiens, IM-9
[57] = test system: T47D; experiment: cells; type: functional, cell-based; settings: Homo sapiens
Description: SANGER: Inhibition of human T47D cell growth in a cell viability assay.

[58] = test system: OPM-2; experiment: cells; type: functional, cell-based, Homo sapiens; settings: Homo sapiens, OPM-2
Description: SANGER: Inhibition of human OPM-2 cell growth in a cell viability assay.

O=S(=O)(O)c1ccc2cc(/N=N/c3cc(S(=O)(=O)O)c4cccnc4c3O)ccc2c1
IC50 [1]: > 16 µM
IC50 [2]: > 16 µM
IC50 [3]: 9.36 µM
IC50 [4]: > 16 µM
IC50 [5]: > 16 µM
IC50 [6]: > 16 µM
IC50 [7]: > 16 µM
IC50 [8]: > 16 µM
IC50 [9]: > 16 µM
IC50 [10]: > 16 µM
IC50 [11]: > 16 µM
IC50 [12]: > 16 µM
IC50 [13]: > 16 µM
IC50 [14]: > 16 µM
IC50 [15]: > 16 µM
IC50 [16]: > 16 µM
IC50 [17]: > 16 µM
IC50 [18]: > 16 µM
IC50 [19]: > 16 µM
IC50 [20]: > 16 µM
IC50 [21]: > 16 µM
IC50 [22]: > 16 µM
IC50 [23]: > 16 µM
IC50 [24]: > 16 µM
IC50 [25]: > 16 µM
IC50 [26]: > 16 µM
IC50 [27]: > 16 µM
IC50 [28]: > 16 µM
IC50 [29]: > 16 µM
IC50 [30]: > 16 µM
IC50 [31]: > 16 µM
IC50 [32]: > 16 µM
IC50 [33]: > 16 µM
IC50 [34]: > 16 µM
IC50 [35]: > 16 µM
IC50 [36]: > 16 µM
IC50 [37]: > 16 µM
IC50 [38]: > 16 µM
IC50 [39]: > 16 µM
IC50 [40]: > 16 µM
IC50 [41]: > 16 µM
IC50 [42]: > 16 µM
IC50 [43]: > 16 µM
IC50 [44]: > 16 µM
IC50 [45]: > 16 µM
IC50 [46]: > 16 µM
IC50 [47]: > 16 µM
IC50 [48]: > 16 µM
IC50 [49]: > 16 µM
IC50 [50]: > 16 µM
IC50 [51]: > 16 µM
IC50 [52]: > 16 µM
IC50 [53]: > 16 µM
IC50 [54]: > 16 µM
IC50 [55]: > 16 µM
IC50 [56]: > 16 µM
IC50 [57]: > 16 µM
IC50 [58]: > 16 µM

Cc1ccc(C(=O)Nc2ccc(CN3CCN(C)CC3)c(C(F)(F)F)c2)cc1C#Cc1cnc2cccnn12 [PONATINIB]
IC50 [1]: > 0.512 µM
IC50 [2]: > 0.512 µM
IC50 [3]: > 0.512 µM
IC50 [4]: > 0.512 µM
IC50 [5]: > 0.512 µM
IC50 [6]: > 0.512 µM
IC50 [8]: > 0.512 µM
IC50 [9]: > 0.512 µM
IC50 [10]: > 0.512 µM
IC50 [11]: > 0.512 µM
IC50 [12]: > 0.512 µM
IC50 [13]: > 0.512 µM
IC50 [14]: > 0.512 µM
IC50 [15]: > 0.512 µM
IC50 [16]: > 0.512 µM
IC50 [17]: > 0.512 µM
IC50 [18]: > 0.512 µM
IC50 [19]: > 0.512 µM
IC50 [20]: > 0.512 µM
IC50 [21]: 0.423 µM
IC50 [22]: > 0.512 µM
IC50 [23]: > 0.512 µM
IC50 [24]: > 0.512 µM
IC50 [25]: > 0.512 µM
IC50 [26]: > 0.512 µM
IC50 [27]: > 0.512 µM
IC50 [28]: > 0.512 µM
IC50 [29]: > 0.512 µM
IC50 [30]: 0.315 µM
IC50 [31]: > 0.512 µM
IC50 [32]: > 0.512 µM
IC50 [33]: > 0.512 µM
IC50 [34]: > 0.512 µM
IC50 [35]: 0.177 µM
IC50 [36]: > 0.512 µM
IC50 [37]: > 0.512 µM
IC50 [38]: > 0.512 µM
IC50 [39]: > 0.512 µM
IC50 [40]: > 0.512 µM
IC50 [41]: > 0.512 µM
IC50 [42]: > 0.512 µM
IC50 [43]: > 0.512 µM
IC50 [44]: > 0.512 µM
IC50 [45]: > 0.512 µM
IC50 [46]: 0.0998 µM
IC50 [47]: > 0.512 µM
IC50 [48]: > 0.512 µM
IC50 [49]: > 0.512 µM
IC50 [50]: > 0.512 µM
IC50 [51]: 0.0789 µM
IC50 [52]: > 0.512 µM
IC50 [53]: > 0.512 µM
IC50 [54]: > 0.512 µM
IC50 [55]: > 0.512 µM
IC50 [56]: > 0.512 µM
IC50 [57]: > 0.512 µM
IC50 [58]: 0.365 µM
